Patent publication US20250122253A1, “REGULATING MICROTUBULE DYNAMICS AS A THERAPEUTIC TARGET FOR NERVE REPAIR” (City University of Hong Kong, priority 2023, published 2025)

How the values were obtained:
axotomized DRG neurons = assay: Neurite outgrowth assay in dissociated DRG cultures; format: cell-based, mice; details: increasing dose; neurite outgrowth increased almost linearly
Protocol: Primary cultures of dissociated DRG neurons were prepared from adult male C57BL/6 or Fmn2^−/− mice (8-12 weeks old) and their age-matched WT littermates as described. Briefly, DRGs were dissected out from the mice and mildly digested in collagenase/dispase II (Roche Diagnostics) solution, trypsinized and mechanically dissociated using flame polished Pasteur pipettes with three different diameters. DRG neurons were incubated in full NB medium.
For ex vivo DRG explant culture, non-overlapping quadrant images were taken from each DRG explant, and total neurite length was measured using automated WIS-NeuroMath software (Weizmann Institute of Science). Data were obtained from at least 3 separate experiments with n=8 explants per dose. […] Total neurite length and average longest neurite length were quantified using automated WIS-NeuroMath software (Weizmann Institute of Science). Data was obtained from 3 independent experiments repeated in duplicates. βIII-tubulin-positive DRG neurons with intact neurites adjacent to the neuronal cell bodies were counted as healthy neurons for neurite outgrowth assay.

[1] = system: regenerating sensory axons of the injured sciatic nerve; assay: Sciatic nerve pinch test after sciatic nerve crush injury; format: in vivo, mice; details: 3 days post-injury
Protocol: Sciatic nerve crush or transection injury was performed in anesthetized adult male C57BL/6 or Fmn2^−/− mice (8-12 weeks old) as previously described. Briefly, the left sciatic nerve was exposed at mid-thigh level. For crush injury, the exposed nerve was crushed with smooth forceps (Dumont #5/45 Forceps, Fine Science Tools) at the sciatic notch for 15 seconds. For sciatic nerve transection, an epineural suture was first made at the level of external rotator muscle, just distal to the sciatic notch. The exposed nerve was then transected using a pair of ophthalmic microscissors just distal to the suture. After injury, the overlying muscle and skin were sutured using a 5-0 suture (Ethilon), and the mice were allowed to recover on a heated pad, and returned to their home cages after recovery. The surgeon was blinded to the genotypes and treatments.
For in vivo gene silencing of Fmn2 and/or Hdac5 in DRGs, AAV2/9-Fmn2-shRNA and AAV2/9-Hdac5-shRNA at a titer of 5×10^12 vg/mL (OBIO Technology) were injected into the sciatic nerve directly through a glass micropipette using a microinjector (Harvard Apparatus) two weeks before sciatic nerve crush injury. The mice were then subjected to sciatic nerve crush injury and sciatic nerve pinch test (FIG. 4) and animal behavioural assessment (FIG. 15). The expression of shRNAs was under the control of the U6 promoter, and the expression of the reporter gene eGFP was under the control of the CAG promoter. AAV2/9-scr-shRNA (Packgene) was used as a negative control (see FIG. 22 for the shRNA sequences). On a separate batch of animals, the knockdown efficiency in DRGs was assessed by Western blot analysis in AAV2-Fmn2-shRNA and AAV2-Hdac5-shRNA mice two weeks after the AAV injection (FIGS. S8B and S9). […]
Sciatic nerve pinch test was performed in the ipsilateral side 3 days after sciatic nerve crush injury. […] The distance (in mm) representing the length of axonal regrowth was recorded from the crushed site to the most distal point of sciatic nerve whereas initial withdrawal reflex was observed after pinching. […]

pHDAC5 = assay: Western blot of pHDAC5 in sciatic nerve segments 0-6 mm distal to the crush site; format: in vivo, mice; details: regenerating axons of sciatic nerves 3 days post-injury
Protocol: Ipsilateral L4/5 DRG neurons were harvested at various time points following sciatic nerve injury as indicated. Sciatic nerves were harvested 3 days after crush injury and segmented into 0-6 mm distal to the crush site. Each protein sample was pooled from 3 mice. DRG neurons and segmented sciatic nerves were mechanically dissociated with protein lysis buffer, and subjected to measurement of protein concentration using protein BCA assay (Pierce). Protein lysate (30 μg) was separated on 4-12% NuPAGE Tris-Glycine precast gel (Invitrogen). Protein was then transferred onto a PVDF membrane (Bio-Rad) and blocked with 5% non-fat milk (Bio-Rad) in TBS-T. The membrane was incubated with anti-FMN2 (1:500; ProteinTech), anti-phosphorylated HDAC5 (1:500, ThermoFisher), anti-HDAC5 (1:500, Novus Biologicals), anti-acetylated tubulin (1:10,000; Sigma-Aldrich), anti-NeuN (1:500; Millipore), anti-SOX10 (1:500; Abcam), anti-IBA-1 (1:1,000; Wako), anti-GFP (1:1,000; Cell Signaling), and anti-GAPDH antibodies (1:2,000; ProteinTech) as loading controls. The membrane was incubated with secondary antibody conjugated with horseradish peroxidase (1:2,000; Thermo-Fisher). Signals were detected using West Femto Maximum Sensitivity Substrate Kit (Thermo Scientific). […] Band intensities were measured using Image Lab software (Bio-Rad). […]

SMILES: Cc1cc(C)cc(OCC2CNC(=O)O2)c1 (stereo not shown) [metaxalone]
- concentration at which neurite outgrowth reaches a plateau (axotomized DRG neurons): 20 µM
- distal sensory axonal regrowth (length) ([1]; 0.25 μg/μl to the site of injury immediately after crush, twice per day, 3 consecutive days): 4.82±0.32 mm
- axonal regrowth (length), delayed treatment ([1]; treatment delayed by 24 hours, 0.25 μg/μl to site of injury for 2 consecutive days): 4.50±0.25 mm
- protein expression of pHDAC5 (pHDAC5): substantial increase
